Read-outs that look alike come from different tables or passages of the source.
Assays:
[1] = biological target: DAT (Rattus norvegicus, UniProt P23977); test: DAT radioligand binding assay; conditions: for pKi ± S.E.M. DAT [3H]WIN 35,428: mean ± S.E.M., 3 independent experiments
[2] = biological target: SERT (Rattus norvegicus, UniProt P31652); test: SERT radioligand binding assay; conditions: for pKi ± S.E.M. SERT [3H]Citalopram: rat brain membranes (stem in methods), mean ± S.E.M., 3 independent experiments
Chain of SERT (P31652 whole entry): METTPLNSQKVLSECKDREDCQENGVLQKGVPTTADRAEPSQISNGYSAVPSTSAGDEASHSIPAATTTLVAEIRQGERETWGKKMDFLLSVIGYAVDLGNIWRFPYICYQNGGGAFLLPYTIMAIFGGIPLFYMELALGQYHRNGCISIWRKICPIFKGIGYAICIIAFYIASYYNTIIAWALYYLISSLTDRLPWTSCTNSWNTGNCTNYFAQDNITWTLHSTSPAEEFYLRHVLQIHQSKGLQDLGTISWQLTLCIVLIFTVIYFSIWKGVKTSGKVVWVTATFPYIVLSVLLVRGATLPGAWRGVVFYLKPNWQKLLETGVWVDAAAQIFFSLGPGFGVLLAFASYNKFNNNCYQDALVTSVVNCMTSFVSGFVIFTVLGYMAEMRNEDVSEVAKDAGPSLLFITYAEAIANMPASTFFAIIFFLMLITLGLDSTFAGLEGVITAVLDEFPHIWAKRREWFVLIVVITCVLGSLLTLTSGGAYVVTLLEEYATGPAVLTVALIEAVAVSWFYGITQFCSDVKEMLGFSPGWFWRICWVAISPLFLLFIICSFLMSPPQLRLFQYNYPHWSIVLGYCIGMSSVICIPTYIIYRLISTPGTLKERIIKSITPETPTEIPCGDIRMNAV

[3] = biological target: DAT; conditions: read-out: DAT Ki; cited from earlier work
[4] = biological target: NET (Rattus norvegicus, UniProt Q63380); test: NET radioligand binding assay
Chain of NET (Q63380 1-617): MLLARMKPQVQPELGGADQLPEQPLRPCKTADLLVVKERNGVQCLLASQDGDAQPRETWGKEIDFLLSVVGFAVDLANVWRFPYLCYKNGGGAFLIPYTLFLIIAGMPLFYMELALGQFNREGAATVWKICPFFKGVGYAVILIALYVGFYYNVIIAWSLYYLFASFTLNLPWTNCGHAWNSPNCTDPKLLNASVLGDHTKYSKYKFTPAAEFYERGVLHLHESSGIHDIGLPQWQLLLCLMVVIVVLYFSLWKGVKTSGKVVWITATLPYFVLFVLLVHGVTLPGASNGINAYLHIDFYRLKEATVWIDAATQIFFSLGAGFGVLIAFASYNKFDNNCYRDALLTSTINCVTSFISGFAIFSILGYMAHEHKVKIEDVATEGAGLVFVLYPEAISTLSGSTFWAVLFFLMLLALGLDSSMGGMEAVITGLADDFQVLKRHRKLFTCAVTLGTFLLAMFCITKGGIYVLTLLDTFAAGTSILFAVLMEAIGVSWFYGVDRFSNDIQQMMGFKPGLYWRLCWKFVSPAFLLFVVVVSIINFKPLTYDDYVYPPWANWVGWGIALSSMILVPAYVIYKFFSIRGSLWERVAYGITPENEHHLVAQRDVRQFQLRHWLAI

[5] = biological target: human DAT (hDAT) (Homo sapiens, UniProt Q01959); test: [3H]dopamine uptake inhibition in CAD cells transiently expressing hDAT; format: cell-based
Chain of human DAT (hDAT) (Q01959 whole entry): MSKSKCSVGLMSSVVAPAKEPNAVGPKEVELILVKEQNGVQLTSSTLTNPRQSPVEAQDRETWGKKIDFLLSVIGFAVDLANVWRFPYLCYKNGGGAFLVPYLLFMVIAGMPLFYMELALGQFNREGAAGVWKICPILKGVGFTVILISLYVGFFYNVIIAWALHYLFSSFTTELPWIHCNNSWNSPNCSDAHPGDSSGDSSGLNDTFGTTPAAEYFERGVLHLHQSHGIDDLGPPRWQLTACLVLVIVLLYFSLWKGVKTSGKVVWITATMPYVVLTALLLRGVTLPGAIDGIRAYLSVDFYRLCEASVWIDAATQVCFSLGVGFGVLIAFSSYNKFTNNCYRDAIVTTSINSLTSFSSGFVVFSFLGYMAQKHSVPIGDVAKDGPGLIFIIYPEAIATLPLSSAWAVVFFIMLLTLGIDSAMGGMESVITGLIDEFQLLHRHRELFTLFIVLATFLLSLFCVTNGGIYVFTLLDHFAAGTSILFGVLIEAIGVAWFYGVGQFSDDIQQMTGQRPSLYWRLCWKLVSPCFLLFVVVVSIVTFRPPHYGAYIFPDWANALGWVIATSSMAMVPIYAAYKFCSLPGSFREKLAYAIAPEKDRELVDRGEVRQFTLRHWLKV

[6] = biological target: EGFP-hDAT (Homo sapiens, UniProt Q01959); test: TIRF microscopy of surface labeling of EGFP-hDAT-expressing CAD cells; format: cell-based; conditions: 10 nM ligand, 10 min, rt; fixed cells
Chain of EGFP-hDAT (Q01959 whole entry): as above

[7] = read-out: Ki DAT [3H]WIN 35,428, rat striatum membranes, value in parentheses
[8] = IC50 DAT [3H]DA, value in parentheses
[9] = pIC50 ± S.E.M. DAT [3H]DA, 20 nM [3H]DA, 5 min, rt

Chain of DAT (Rattus norvegicus, UniProt P23977) (P23977 whole entry): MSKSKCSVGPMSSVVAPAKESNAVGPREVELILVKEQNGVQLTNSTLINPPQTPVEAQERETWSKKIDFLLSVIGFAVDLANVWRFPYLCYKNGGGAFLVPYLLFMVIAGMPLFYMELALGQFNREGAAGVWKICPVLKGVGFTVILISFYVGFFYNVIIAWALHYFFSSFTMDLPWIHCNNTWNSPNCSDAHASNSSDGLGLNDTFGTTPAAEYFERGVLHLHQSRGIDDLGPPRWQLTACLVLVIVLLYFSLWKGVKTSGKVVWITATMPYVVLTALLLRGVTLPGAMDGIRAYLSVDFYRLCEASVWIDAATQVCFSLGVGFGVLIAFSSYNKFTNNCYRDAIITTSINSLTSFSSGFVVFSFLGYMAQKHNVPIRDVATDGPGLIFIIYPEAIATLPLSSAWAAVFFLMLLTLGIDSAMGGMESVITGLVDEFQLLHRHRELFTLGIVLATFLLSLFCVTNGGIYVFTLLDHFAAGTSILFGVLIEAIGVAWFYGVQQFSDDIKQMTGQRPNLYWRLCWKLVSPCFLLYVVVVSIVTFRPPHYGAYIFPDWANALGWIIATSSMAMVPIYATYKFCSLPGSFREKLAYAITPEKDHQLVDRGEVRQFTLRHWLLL

SMILES | pKi ± S.E.M. DAT [3H]WIN 35,428 ([1]; rat striatum membranes) | Ki [1, 7] | pKi ± S.E.M. SERT [3H]Citalopram [2] | Ki [3] | Ki [1] | Ki [4] | Ki [2] | IC50 [5, 8] | IC50 [5, 9] | pIC50 ± S.E.M. DAT [3H]DA ([5]; 20 nM [3H]DA, 5 min, rt) | surface labeling of EGFP-hDAT-expressing CAD cells, TIRF microscopy (in words) [6]
CCN(CC)c1ccc2c(-c3ccc(S(=O)(=O)NCCCCCC(=O)NCCN4C5CCC4[C@@H](C(=O)OC)[C@@H](c4ccc(Cl)c(Cl)c4)C5)cc3S(=O)(=O)[O-])c3ccc(=[N+](CC)CC)cc-3oc2c1 (some centres unmarked) [Compound 2, reference compound] | 7.79 ± 0.09 | 16 nM | 7.80 ± 0.08 | 18 nM | – | – | – | – | – | – | –
COC(=O)[C@H]1[C@@H](c2ccc(Cl)c(Cl)c2)C[C@@H]2CC[C@H]1N2CCOCCOCCNC(=O)c1ccc2c(c1)C1(OC2=O)c2ccc(N3CCC3)cc2[Si](C)(C)c2cc(N3CCC3)ccc21 [Compound 10, Methyl (1R,2S,3S,5S)-8-(2-(2-(2-(3,7-di(azetidin-1-yl)-5,5-dimethyl-3’-oxo-3’H,5H-spiro[dibenzo[b,e]siline-10,1’-isobenzofuran]-6’-carboxamido)ethoxy)ethoxy)ethyl)-3-(3,4-dichlorophenyl)-8-azabicyclo[3.2.1]octane-2-carboxylate] | – | – | – | – | 112 nM | 468 nM | 153 nM | 1150 nM | 1150 nM | – | –
COC(=O)[C@H]1[C@@H](c2ccc(Cl)c(Cl)c2)C[C@@H]2CC[C@H]1N2CCOCCOCCOCCOCCOCCNC(=O)c1ccc2c(c1)C1(OC2=O)c2ccc(N3CCC3)cc2[Si](C)(C)c2cc(N3CCC3)ccc21 [Compound 4, Methyl (1R,2S,3S,5S)-8-(1-(3,7-di(azetidin-1-yl)-5,5-dimethyl-3’-oxo-3’H,5H-spiro[dibenzo[b,e]siline-10,1’-isobenzofuran]-6’-yl)-1-oxo-5,8,11,14,17-pentaoxa-2-azanonadecan-19-yl)-3-(3,4-dichlorophenyl)-8-azabicyclo[3.2.1]octane-2-carboxylate] | 7.55 ± 0.03 | 28 nM | 7.37 ± 0.05 | – | – | – | – | – | – | 6.99 ± 0.15 | surface labeling was observed
COC(=O)[C@H]1[C@@H](c2ccc(Cl)c(Cl)c2)C[C@@H]2CC[C@H]1N2CCN1CCN(CCCCNC(=O)c2ccc3c(c2)C2(OC3=O)c3ccc(N4CCC4)cc3[Si](C)(C)c3cc(N4CCC4)ccc32)CC1 [Compound 14, Methyl (1R,2S,3S,5S)-8-(2-(4-(4-(3,7-di(azetidin-1-yl)-5,5-dimethyl-3’-oxo-3’H,5H-spiro[dibenzo[b,e]siline-10,1’-isobenzofuran]-6’-carboxamido)butyl)piperazin-1-yl)ethyl)-3-(3,4-dichlorophenyl)-8-azabicyclo[3.2.1]octane-2-carboxylate] | – | – | – | – | 38 nM | 1200 nM | 38 nM | 160 nM | 158 nM | – | the labeling was very punctate
COC(=O)[C@H]1[C@@H](c2ccc(Cl)c(Cl)c2)C[C@@H]2CC[C@H]1N2CCOCCOCCNC(=O)c1ccc(C(=O)[O-])c(-c2c3ccc(=[N+]4CCC4)cc-3oc3cc(N4CCC4)ccc23)c1 [Compound 3, 2-(3-(Azetidin-1-ium-1-ylidene)-6-(azetidin-1-yl)-3H-xanthen-9-yl)-4-((2-(2-(2-((1R,2S,3S,5S)-3-(3,4-dichlorophenyl)-2-(methoxycarbonyl)-8-azabicyclo[3.2.1]octan-8-yl)ethoxy)ethoxy)ethyl)carbamoyl)benzoate] | – | – | – | – | 6.03 nM | 225 nM | 41.7 nM | 28 nM | 28.2 nM | – | surface labeling was observed
COC(=O)[C@H]1[C@@H](c2ccc(Cl)c(Cl)c2)C[C@@H]2CC[C@H]1N2C [Compound 1, reference compound] | 9.10 ± 0.23 | 0.8 nM | 7.99 ± 0.20 | – | – | – | – | – | – | – | –

From publication PMC8283659 (ACS chemical neuroscience, 2020)
